System: 485368-065-R4-J2-PDC spheroids with HUVEC/MSC, viability
Assay: Anticancer human tumor 485368-065-R4-J2-PDC patient-derived pancreatic carcinoma cell line growth inhibition [CLK]
Details: for IC50: curve of first compound; for viability, T/C: stronger effect = lower value
In short: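 Multi-cell-type spheroids combined patient-derived tumor cells with HUVEC endothelial cells and human mesenchymal stem cells. Paired agents were dosed in half-log steps down from about clinical Cmax, or from 10 microM where Cmax was unknown.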

[1] = second compound 0.0316 µM, first compound 0.0316 µM
[2] = second compound 0.0316 µM, first compound 0.1 µM
[3] = second compound 0.0316 µM, first compound 0.316 µM
[4] = second compound 0.0316 µM, first compound 1 µM
[5] = second compound 0.0316 µM, first compound 3.16 µM
[6] = second compound 0.0316 µM, first compound 10 µM
[7] = second compound 0.1 µM, first compound 0.0316 µM
[8] = second compound 0.1 µM, first compound 0.1 µM
[9] = second compound 0.1 µM, first compound 0.316 µM
[10] = second compound 0.1 µM, first compound 1 µM
[11] = second compound 0.1 µM, first compound 3.16 µM
[12] = second compound 0.1 µM, first compound 10 µM
[13] = second compound 0.316 µM, first compound 0.0316 µM
[14] = second compound 0.316 µM, first compound 0.1 µM
[15] = second compound 0.316 µM, first compound 0.316 µM
[16] = second compound 0.316 µM, first compound 1 µM
[17] = second compound 0.316 µM, first compound 3.16 µM
[18] = second compound 0.316 µM, first compound 10 µM
[19] = second compound 1 µM, first compound 0.0316 µM
[20] = second compound 1 µM, first compound 0.1 µM
[21] = second compound 1 µM, first compound 0.316 µM
[22] = second compound 1 µM, first compound 1 µM
[23] = second compound 1 µM, first compound 3.16 µM
[24] = second compound 1 µM, first compound 10 µM
[25] = second compound 3.16 µM, first compound 0.0316 µM
[26] = second compound 3.16 µM, first compound 0.1 µM
[27] = second compound 3.16 µM, first compound 0.316 µM
[28] = second compound 3.16 µM, first compound 1 µM
[29] = second compound 3.16 µM, first compound 3.16 µM
[30] = second compound 3.16 µM, first compound 10 µM
[31] = second compound 10 µM, first compound 0.0316 µM
[32] = second compound 10 µM, first compound 0.1 µM
[33] = second compound 10 µM, first compound 0.316 µM
[34] = second compound 10 µM, first compound 1 µM
[35] = second compound 10 µM, first compound 3.16 µM
[36] = second compound 10 µM, first compound 10 µM
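Note: spheroids exposed to compounds for seven days.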
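Throughout, for viability, T/C: 100% = DMSO vehicle control wells.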

Structure (SMILES): C#Cc1c(F)ccc2cc(O)cc(-c3ncc4c(N5CC6CCC(C5)N6)nc(OCC56CCCN5CC(F)C6)nc4c3F)c12 (stereo not drawn) + CN1CCN(c2cc(C(=O)Nc3cc4cc(-c5cnn(C)c5)ccc4cn3)ccn2)CC1
- IC50 (second compound 0.0316 µM): > 10000 nM
- IC50 (second compound 0.1 µM): > 10000 nM
- IC50 (second compound 0.316 µM): 9710 nM
- IC50 (second compound 1 µM): < 31.6 nM
- IC50 (second compound 3.16 µM): < 31.6 nM
- IC50 (second compound 10 µM): < 31.6 nM
- viability, T/C [1]: 94.6%
- viability, T/C [2]: 106%
- viability, T/C [3]: 96.7%
- viability, T/C [4]: 116%
- viability, T/C [5]: 107%
- viability, T/C [6]: 117%
- viability, T/C [7]: 112%
- viability, T/C [8]: 115%
- viability, T/C [9]: 96.3%
- viability, T/C [10]: 111%
- viability, T/C [11]: 96%
- viability, T/C [12]: 75.8%
- viability, T/C [13]: 90.3%
- viability, T/C [14]: 90.9%
- viability, T/C [15]: 82.5%
- viability, T/C [16]: 80.7%
- viability, T/C [17]: 68.6%
- viability, T/C [18]: 49.3%
- viability, T/C [19]: 3.21%
- viability, T/C [20]: 2.21%
- viability, T/C [21]: 1.7%
- viability, T/C [22]: 2.24%
- viability, T/C [23]: 1.78%
- viability, T/C [24]: 1.33%
- viability, T/C [25]: 1.18%
- viability, T/C [26]: 1.09%
- viability, T/C [27]: 1.08%
- viability, T/C [28]: 1.21%
- viability, T/C [29]: 1.29%
- viability, T/C [30]: 1.21%
- viability, T/C [31]: 1.44%
- viability, T/C [32]: 2.45%
- viability, T/C [33]: 1.6%
- viability, T/C [34]: 1.34%
- viability, T/C [35]: 2.21%
- viability, T/C [36]: 1.87%

Structure (SMILES): CC(CO)NC(=O)c1cc(-c2ccc(Cl)cc2)nn(-c2cnn(C)c2)c1=O (stereo not drawn) + CN1CCN(c2cc(C(=O)Nc3cc4cc(-c5cnn(C)c5)ccc4cn3)ccn2)CC1
- IC50 (second compound 0.0316 µM): > 10000 nM
- IC50 (second compound 0.1 µM): > 10000 nM
- IC50 (second compound 0.316 µM): > 10000 nM
- IC50 (second compound 1 µM): < 31.6 nM
- IC50 (second compound 3.16 µM): < 31.6 nM
- IC50 (second compound 10 µM): < 31.6 nM
- viability, T/C [1]: 91.7%
- viability, T/C [2]: 106%
- viability, T/C [3]: 99.8%
- viability, T/C [4]: 105%
- viability, T/C [5]: 104%
- viability, T/C [6]: 101%
- viability, T/C [7]: 114%
- viability, T/C [8]: 116%
- viability, T/C [9]: 108%
- viability, T/C [10]: 116%
- viability, T/C [11]: 105%
- viability, T/C [12]: 99.3%
- viability, T/C [13]: 87.2%
- viability, T/C [14]: 87.9%
- viability, T/C [15]: 91%
- viability, T/C [16]: 82.5%
- viability, T/C [17]: 78.1%
- viability, T/C [18]: 79.1%
- viability, T/C [19]: 1.07%
- viability, T/C [20]: 2.15%
- viability, T/C [21]: 1.7%
- viability, T/C [22]: 1.69%
- viability, T/C [23]: 1.72%
- viability, T/C [24]: 2.66%
- viability, T/C [25]: 2.09%
- viability, T/C [26]: 1.46%
- viability, T/C [27]: 1.34%
- viability, T/C [28]: 1.32%
- viability, T/C [29]: 1.45%
- viability, T/C [30]: 3.08%
- viability, T/C [31]: 1.44%
- viability, T/C [32]: 4.18%
- viability, T/C [33]: 1.35%
- viability, T/C [34]: 1.26%
- viability, T/C [35]: 2.31%
- viability, T/C [36]: 1.01%

Structure (SMILES): CC(Nc1ccc2c(c1)OCCn1cc(N3C(=O)OCC3C(F)F)nc1-2)C(N)=O (stereo not drawn) + CN1CCN(c2cc(C(=O)Nc3cc4cc(-c5cnn(C)c5)ccc4cn3)ccn2)CC1
- IC50 (second compound 0.0316 µM): > 10000 nM
- IC50 (second compound 0.1 µM): > 10000 nM
- IC50 (second compound 0.316 µM): 158 nM
- IC50 (second compound 1 µM): < 31.6 nM
- IC50 (second compound 3.16 µM): < 31.6 nM
- IC50 (second compound 10 µM): < 31.6 nM
- viability, T/C [1]: 92.4%
- viability, T/C [2]: 109%
- viability, T/C [3]: 103%
- viability, T/C [4]: 83.3%
- viability, T/C [5]: 78.8%
- viability, T/C [6]: 62.3%
- viability, T/C [7]: 98.7%
- viability, T/C [8]: 95.5%
- viability, T/C [9]: 93%
- viability, T/C [10]: 68.8%
- viability, T/C [11]: 58.6%
- viability, T/C [12]: 53.4%
- viability, T/C [13]: 68.9%
- viability, T/C [14]: 55.8%
- viability, T/C [15]: 41.9%
- viability, T/C [16]: 30.3%
- viability, T/C [17]: 27.2%
- viability, T/C [18]: 20.7%
- viability, T/C [19]: 1.25%
- viability, T/C [20]: 1.05%
- viability, T/C [21]: 0.92%
- viability, T/C [22]: 0.74%
- viability, T/C [23]: 1.65%
- viability, T/C [24]: 1.84%
- viability, T/C [25]: 2.26%
- viability, T/C [26]: 1.12%
- viability, T/C [27]: 3.5%
- viability, T/C [28]: 2.02%
- viability, T/C [29]: 2.42%
- viability, T/C [30]: 2.95%
- viability, T/C [31]: 1.54%
- viability, T/C [32]: 2.13%
- viability, T/C [33]: 2.05%
- viability, T/C [34]: 2.62%
- viability, T/C [35]: 2.43%
- viability, T/C [36]: 2.04%

Structure (SMILES): COc1c(OCCCN2CCOCC2)ccc2c3n(c(=NC(=O)c4cnc(N)nc4)nc12)CCN3 + CN1CCN(c2cc(C(=O)Nc3cc4cc(-c5cnn(C)c5)ccc4cn3)ccn2)CC1
- IC50 (second compound 0.0316 µM): 245 nM
- IC50 (second compound 0.1 µM): 117 nM
- IC50 (second compound 0.316 µM): 22 nM
- IC50 (second compound 1 µM): < 3.16 nM
- IC50 (second compound 3.16 µM): < 3.16 nM
- IC50 (second compound 10 µM): < 3.16 nM
- viability, T/C (second compound 0.0316 µM, first compound 0.00316 µM): 102%
- viability, T/C (second compound 0.0316 µM, first compound 0.01 µM): 113%
- viability, T/C [1]: 85.8%
- viability, T/C [2]: 71.3%
- viability, T/C [3]: 42%
- viability, T/C [4]: 37.8%
- viability, T/C (second compound 0.1 µM, first compound 0.00316 µM): 93.7%
- viability, T/C (second compound 0.1 µM, first compound 0.01 µM): 99.9%
- viability, T/C [7]: 82.7%
- viability, T/C [8]: 53.7%
- viability, T/C [9]: 32.4%
- viability, T/C [10]: 33.2%
- viability, T/C (second compound 0.316 µM, first compound 0.00316 µM): 69.4%
- viability, T/C (second compound 0.316 µM, first compound 0.01 µM): 61.1%
- viability, T/C [13]: 45.1%
- viability, T/C [14]: 22.4%
- viability, T/C [15]: 16.4%
- viability, T/C [16]: 22.5%
- viability, T/C (second compound 1 µM, first compound 0.00316 µM): 2.4%
- viability, T/C (second compound 1 µM, first compound 0.01 µM): 1.65%
- viability, T/C [19]: 1.92%
- viability, T/C [20]: 0.96%
- viability, T/C [21]: 1.07%
- viability, T/C [22]: 5.51%
- viability, T/C (second compound 3.16 µM, first compound 0.00316 µM): 1.02%
- viability, T/C (second compound 3.16 µM, first compound 0.01 µM): 2.04%
- viability, T/C [25]: 1.56%
- viability, T/C [26]: 1.95%
- viability, T/C [27]: 2.07%
- viability, T/C [28]: 1.38%
- viability, T/C (second compound 10 µM, first compound 0.00316 µM): 1.34%
- viability, T/C (second compound 10 µM, first compound 0.01 µM): 2.28%
- viability, T/C [31]: 3.18%
- viability, T/C [32]: 3.27%
- viability, T/C [33]: 2.35%
- viability, T/C [34]: 2%
